The test system of one experiment is GTL16. Briefly: GTL16 cell assay (EC50). Format: cell-based. The note with it: Homo sapiens, GTL 16.
For another experiment, the system named is GTL16 tumors. Description: GTL16 tumor xenograft model, tumor growth inhibition. Format: in vivo, female athymic nude mice. To be noted: for decrease of mean tumor volume compared to vehicle-treated group: last day of treatment. Here is the method: GTL16 Tumor Xenograft Model
Female athymic nude mice (nu/nu from Harlan) were 6-8 weeks old with a body weight range of 18-22 g at the beginning of the study. The animals had free access to food and water throughout the study. The mice were housed on irradiated Alpha-dri® Bed-O-Cobs® Laboratory Animal Bedding in static micro isolator caging on a 12-hour light cycle at 70-74° F. and 40-60% humidity. All procedures involving animals were conducted in compliance with the NIH Guide for the Care and Use of Laboratory Animals and all protocols were approved by an Internal Animal Care and Use Committee (IACUC).
Xenografts were initiated from GTL-16 tumor cells cultured and maintained by an internal Cell Biology Department. Each test mouse received a subcutaneous injection of 4×10^6 cells suspended in 100 μL of serum free RPMI media. Tumors were randomized into treatment groups on Day 5 when the average tumor size reached approximately 150 mm^3. Each dose groups contained n=5 mice. Tumor volume was calculated using the formula: Tumor Volume=(w^2×l)/2, where w=width and l=length in mm of the tumor. Tumor weight may be estimated with the assumption that 1 mg is equivalent to 1 mm^3 of tumor volume.
Tumor Growth Inhibition (TGI) Analysis
TGI was calculated from the difference between the mean tumor volumes of vehicle-treated and drug-treated mice, expressed as a percentage.
The MTV is defined as the mean tumor volume (MTV) for the number of animals, n, remaining in the study on that day.

Experiment [1] concerns the target MET kinase (c-MET), kinase domain of human Met (Homo sapiens, UniProt P08581). Description: MET luminescence-based enzyme assay (Kinase-Glo).

Sequence of MET kinase (c-MET), kinase domain of human Met (P08581 1078-1345 limits assumed): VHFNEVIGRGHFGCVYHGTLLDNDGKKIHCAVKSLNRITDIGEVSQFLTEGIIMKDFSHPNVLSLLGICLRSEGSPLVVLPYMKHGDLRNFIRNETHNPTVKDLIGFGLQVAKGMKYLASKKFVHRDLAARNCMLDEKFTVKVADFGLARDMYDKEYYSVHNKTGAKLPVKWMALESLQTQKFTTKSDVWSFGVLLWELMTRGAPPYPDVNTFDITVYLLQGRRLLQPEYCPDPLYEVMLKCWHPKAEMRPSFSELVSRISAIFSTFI

As for `CNC(=O)c1ccc(-c2ccc3nnc(Cc4ccc5ncccc5c4)n3n2)cc1F` [compound 30], in the experiment with GTL16 (Table 1), the concentration giving a half-maximal response (EC50) is less than 100 nM. In addition, the “decrease of mean tumor volume compared to vehicle-treated group” value amounted to 27% with GTL16 tumors (3 mg/kg PO BID for 14 consecutive days, p<0.2743) and 89% in the experiment on GTL16 tumors (50 mg/kg IP BID for 14 consecutive days, p<0.0036). In addition, the “inhibition of growth of GTL16 tumors grown subcutaneously” value with GTL16 tumors (IP dose 50 mg/kg BID, 14 consecutive days) is reported as “statistically significant inhibition”. Further, the 50% inhibitory concentration (IC50) in experiment [1] is less than 100 nM.

As for `Cc1ccc2nnc(Cc3ccc4ncc(-c5cnn(C)c5)cc4c3)n2n1` [compound 124, 3-(1-Methyl-1H-pyrazol-4-yl)-6-(6-methyl-[1,2,4]triazolo[4,3-b]pyridazin-3-ylmethyl)-quinoline], in the experiment with GTL16 (Table 2), the EC50 was less than 100 nM. The “decrease of mean tumor volume compared to vehicle-treated group” value in the experiment with GTL16 tumors (1 mg/kg PO Q12H for 14.5 consecutive days, p=0.0079) is recorded as 32%; with GTL16 tumors (3 mg/kg PO Q12H for 14.5 consecutive days, p<0.0001), 55%; in the experiment on GTL16 tumors (10 mg/kg PO Q12H for 14.5 consecutive days, p<0.0001), 72%; in the experiment with GTL16 tumors (30 mg/kg PO Q12H for 14.5 consecutive days, p<0.0001), 79%. The same molecule showed an IC50 in experiment [1] of less than 100 nM.
